Series [1] relates to MCT1. Particulars: cited from earlier work.
Series [2] has as its system SAWy710 (EV). As to the kind of experiment: High throughput assay validation, empty vector (EV) control strain SAWy710, AZD versus DMSO. The series is classed as cell-based, Saccharomyces cerevisiae. To be noted: individual wells 1-16, listed as AZD.
The conditions of series [3]: patients with advanced cancer; dose-limiting toxicity relating to retinopathy at higher concentrations; cited from earlier work.
Series [4] has as its system Δjen1 EV. Nature of the series: Growth with lactate as sole carbon source, Δjen1 carrying empty vector (EV) control. The series is classed as cell-based, Saccharomyces cerevisiae.
For series [5], the target named is MCT1 (wildtype) (UniProt P36035+P53987). Nature of the series: Growth with lactate as sole carbon source, by4741 Δjen1 expressing wild-type MCT1.
Description: (§1) Yeast was propagated, transformed, and assayed in synthetic complete media. Synthetic media was composed of 1.5 g Difco yeast nitrogen base without amino acids and ammonium sulfate, 5 g ammonium sulfate, 200 μM inositol, and 2 g amino acid powder mix per liter. For all studies using MCT1, uracil was excluded to maintain plasmid selection. The carbon source for most experiments was 2% glucose; however, for growth in alternative carbon sources lactate (0.5% v/v) or pyruvate (40 mM) was used instead with media pH adjustment to 5.0.
(§2) For growth in lactate or pyruvate as a sole carbon source by4741 and an equivalent strain with a JEN1 knockout was obtained from the nonessential gene deletion library [62].
(§3) Supplementary file pone.0312492.s005.tif: S5 Fig Growth of the optimal MCT1 fusion in lactate and sensitivity to AZD3965 administration. […] AZD3965 was added to the media at a concentration of 10 μM.
Series [6] addresses MCT1 (F360C) (UniProt P36035+P53987, F360C). As to the kind of experiment: Growth with lactate as sole carbon source, by4741 Δjen1 expressing MCT1(F360C). To be noted: for growth curve reading, single replicate / growth curve reading, mean of 4 replicates: Δjen1 MCT1(F360C).
Description: as §1, §2, §3
Series [7] addresses neurokinin 1 (NK1) receptor. Further details: method as in not given. Particulars: library annotation; ref not given; cited from earlier work.
The target in series [8] is neurokinin 1 (NK1) receptor. Particulars: library annotation; cited from earlier work.
Series [9] has as its system parent strain (SAWy518).
The test system of series [10] is parent strain (SAWy518). As to the kind of experiment: microbe, parasite or virus in culture. Further details: species or system Saccharomyces cerevisiae SAWy518; Off-target growth counter-screen, OD600 as per cent of untreated wells, strain lacking MCT1. To be noted: 18.5 h; sheet Primary Screen - final;; off-target growth of parent strain, about 18 h.
The target of series [11] is neurokinin 1 (NK1) receptor. To be noted: library annotation; cited from earlier work. The source holds these as a separate data set.
For series [12], the system named is cancer cell growth. To be noted: 10 μM, administered alone; cited from earlier work.
The subject of series [13] is tumor growth. To be noted: cited from earlier work.
In series [14] the test system is MCT4. To be noted: HAP1 cells; NOTES column annotation; cited from earlier work.
Series [15] deals with MCT4. Particulars: HAP1 cells, library annotation; cited from earlier work.
The subject of series [16] is survivin. Particulars: library annotation; cited from earlier work.
In series [17] the test system is survivin. To be noted: library annotation; cited from earlier work. The source holds these as a separate data set.
The subject of series [18] is survivin. Particulars: NOTES column annotation; cited from earlier work.

The values below come from publication PMC11637378, “Optogenetic screening of MCT1 activity implicates a cluster of non-steroidal anti-inflammatory drugs (NSAIDs) as inhibitors of lactate transport” (PLOS ONE, 2024).

As usually defined, the IC50 is the concentration that gives 50% inhibition. Usually Ki stands for the equilibrium dissociation constant of an inhibitor or competing ligand from its target. The term viability denotes a read-out of living cells in per cent, often relative to untreated cells.

Several values for one entry are separate records, joined by “and”; a condition that tells them apart may be missing. Identical values can stand only once. Like-named read-outs stand apart in the source and are kept apart here.

Chain of MCT1 (wildtype) (P36035+P53987 fused): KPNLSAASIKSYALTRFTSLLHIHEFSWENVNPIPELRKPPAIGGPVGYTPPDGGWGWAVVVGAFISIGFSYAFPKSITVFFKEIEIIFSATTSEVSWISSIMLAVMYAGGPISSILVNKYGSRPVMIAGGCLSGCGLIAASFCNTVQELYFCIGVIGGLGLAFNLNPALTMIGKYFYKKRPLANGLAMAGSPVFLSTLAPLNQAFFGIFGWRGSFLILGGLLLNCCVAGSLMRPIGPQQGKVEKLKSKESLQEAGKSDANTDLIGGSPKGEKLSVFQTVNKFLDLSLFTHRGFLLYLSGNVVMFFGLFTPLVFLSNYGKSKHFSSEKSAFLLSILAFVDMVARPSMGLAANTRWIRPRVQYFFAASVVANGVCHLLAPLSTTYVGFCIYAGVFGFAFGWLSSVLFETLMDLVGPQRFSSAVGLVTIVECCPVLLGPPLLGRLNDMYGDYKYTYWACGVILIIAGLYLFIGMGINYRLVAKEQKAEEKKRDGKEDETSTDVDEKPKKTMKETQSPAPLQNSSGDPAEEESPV
Chain of MCT1 (F360C) (P36035+P53987 fused P53987:F360C): as the sequence (P36035+P53987 fused) above, with F398C counted along it

In the case of `Cc1[nH]nc(C(F)(F)F)c1Cc1sc2c(c1C(=O)N1C[C@](C)(O)CO1)c(=O)n(C)c(=O)n2C(C)C` [AZD3965], in series [1] (read-out: previously reported IC50 value), the IC50 is 5.12 nM. For the same compound, the OD600 is 0.1411 and 0.1378 and 0.134 and 0.1369 and 0.1383 and 0.1317 and 0.135 and 0.1363 and 0.1403 and 0.1392 and 0.1365 and 0.1389 and 0.1394 and 0.149 in series [2] (Condition non, Replicate1, EV strain SAWy710, 10 µM AZD); 0.1384 and 0.1406 and 0.1366 and 0.135 and 0.1021 and 0.1315 and 0.1407 and 0.1329 and 0.1336 and 0.1393 and 0.1343 and 0.134 and 0.138 and 0.1378 and 0.1431 in [2] (Condition non, Replicate2, EV strain SAWy710, 10 µM AZD); 0.7718 and 0.7777 and 0.7776 and 0.7734 and 0.7269 and 0.7398 and 0.7671 and 0.7655 and 0.7645 and 0.774 and 0.768 and 0.7629 and 0.759 and 0.7698 and 0.7556 and 0.7591 in series [2] (Condition perm, Replicate1, EV strain SAWy710, 10 µM AZD); 0.1774 and 0.1728 and 0.1654 and 0.1606 and 0.1374 and 0.1596 and 0.1712 and 0.1673 and 0.1713 and 0.168 and 0.1743 and 0.17 and 0.1727 and 0.1704 and 0.1842 in series [2] (Condition perm, Replicate2, EV strain SAWy710, 10 µM AZD). Also, in series [3], the “tolerability in phase-1 clinical trial” value is given as “relatively well tolerated”. For the same compound, the “growth curve reading, single replicate” value in [4] (T1, time 19) is 0.1091 and 0.1160 and 0.1215 and 0.1310; in series [4] (T2, time 21), 0.1392 and 0.1432 and 0.1501; in series [4] (T3, time 25), 0.1257 and 0.1403 and 0.1504; in series [4] (T4, time 27.5) it was 0.1322 and 0.1452 and 0.1564 and 0.1709; in series [4] (T5, time 43), 0.1444 and 0.1533 and 0.1681 and 0.1884; in series [4] (T6, time 45.5), 0.1453 and 0.1535 and 0.1657 and 0.1862. Also, the “growth curve reading, single replicate” value in [4] (T7, time 48) was 0.1464 and 0.1540 and 0.1668 and 0.1877; in series [5] (Δjen1 MCT1, T0, time 0) it was 0.0402; in series [5] (Δjen1 MCT1, T1, time 19), 0.1316 and 0.1252 and 0.1281 and 0.1266; in [5] (Δjen1 MCT1, T2, time 21), 0.1442 and 0.1394 and 0.1417 and 0.1396; in series [5] (Δjen1 MCT1, T3, time 25), 0.1656 and 0.1622 and 0.1633 and 0.1608; in series [5] (Δjen1 MCT1, T4, time 27.5), 0.1778 and 0.1729 and 0.1762. In addition, the “growth curve reading, single replicate” value in series [5] (Δjen1 MCT1, T5, time 43) was 0.2083 and 0.2030 and 0.2026 and 0.2041; in series [5] (Δjen1 MCT1, T6, time 45.5) it was 0.2171 and 0.2098 and 0.2095 and 0.2126; in [5] (Δjen1 MCT1, T7, time 48) it was 0.2154 and 0.2089 and 0.2128 and 0.2107; in [6] (T0, time 0), 0.0403; in [6] (T1, time 19), 0.1093 and 0.1204 and 0.1196 and 0.1290; in [6] (T2, time 21), 0.1288 and 0.1364 and 0.1335. For the same compound, the “growth curve reading, single replicate” value was 0.1550 and 0.1804 and 0.1853 and 0.2001 in series [6] (T3, time 25); 0.1660 and 0.1913 and 0.2008 and 0.2152 in series [6] (T4, time 27.5); 0.1991 and 0.2285 and 0.2378 and 0.2578 in series [6] (T5, time 43); 0.2030 and 0.2318 and 0.2431 and 0.2629 in [6] (T6, time 45.5); 0.2036 and 0.2334 and 0.2458 and 0.2644 in series [6] (T7, time 48). Also, the “growth curve reading, mean of 4 replicates” value (“growth curve reading, mean” for short) in [4] (time 19) is 0.1194; in series [4] (time 21), 0.1435; in [4] (time 25) it was 0.1449; in series [4] (time 27.5) it was 0.1512; in [4] (time 43), 0.1636; in series [4] (time 45.5), 0.1627. For the same compound, the “growth curve reading, mean” value in [4] (time 48) turned out to be 0.1637; in series [5] (Δjen1 MCT1, time 0), 0.0402; in series [5] (Δjen1 MCT1, time 19), 0.1279; in [5] (Δjen1 MCT1, time 21), 0.1412; in [5] (Δjen1 MCT1, time 25) it was 0.1630; in series [5] (Δjen1 MCT1, time 27.5), 0.1750. The “growth curve reading, mean” value in [5] (Δjen1 MCT1, time 43) is given as 0.2045; in series [5] (Δjen1 MCT1, time 45.5), 0.2122; in series [5] (Δjen1 MCT1, time 48) it was 0.2120; in [6] (time 0) it was 0.0403; in [6] (time 19) it was 0.1196; in series [6] (time 21), 0.1338. Moreover, the “growth curve reading, mean” value was determined as 0.1802 in series [6] (time 25); 0.1933 in series [6] (time 27.5); 0.2308 in [6] (time 43); 0.2352 in series [6] (time 45.5); 0.2368 in series [6] (time 48). Moreover, the “growth in media with lactate as the sole carbon source” value in series [5] (wildtype MCT1, AZD3965 10 μM, 0.5% lactate (S5 Fig)) is given as “inhibited growth”; in series [6] (MCT1 F360C, AZD3965 10 μM, 0.5% lactate (S5 Fig)), “inhibited growth”.
In the case of `Cc1ccccc1-c1cc(N2CCN(C)CC2)ncc1N(C)C(=O)C(C)(C)c1cc(C(F)(F)F)cc(C(F)(F)F)c1` [Netupitant], in series [7], the Ki was 0.95 nM. For the same compound, the Ki in series [8] was 0.95 nM. Moreover, in [9], the OffScreen_percentage was 103.271 percentage, the Offscreen_18hr was determined as 0.8334, the Offscreen_24hr worked out at 0.9137 and the Offscreen_42hr turned out to be 0.9839. For the same compound, in series [9], the Read_percentage is on record as 103.271 percentage. For the same compound, in [10], the viability at 10 µM is 103%. In addition, the Ki in series [11] is 0.95 nM.
On to `CCOC(=O)Oc1c(OC)cc(C(=O)O[C@@H]2C[C@@H]3CN4CCc5c([nH]c6cc(OC)ccc56)[C@H]4C[C@@H]3[C@H](C(=O)OC)[C@H]2OC)cc1OC` [Syrosingopine], for which, in series [9], the OffScreen_percentage is 92.2553 percentage, the Offscreen_18hr was found to be 0.7445, the Offscreen_24hr is reported as 0.7958 and the Offscreen_42hr worked out at 0.9268. The Read_percentage in [9] is listed as 92.2553. Also, the IC50 in series [1] (HAP1 cells, library annotation, read-out: IC50 MCT1) is 2500 nM. The “in vitro cancer cell growth” value in series [12] is “inhibit in vitro cancer cell growth”. The viability at 10 µM in series [10] came out at 92.3%. In [13] (alone versus paired with metformin), the “tumor growth in in vivo cancer models” value is on record as “only effective in reducing tumor growth when paired with the mitochondrial oxidative phosphorylation inhibitor metformin”. Further, the “dose required to inhibit tumor growth in mice” value in [13] (mice) is listed as 7.5 mg/kg. Besides, in series [14], the IC50 is 40 nM. Besides, the IC50 in series [15] is 40 nM.
With YM155, the IC50 in series [16] was 0.54 nM. In addition, in series [9], the OffScreen_percentage is 103.73 percentage, the Offscreen_18hr came to 0.8371, the Offscreen_24hr is 0.9154 and the Offscreen_42hr was 0.9694. In addition, in series [9], the Read_percentage came out at 103.73. Also, the IC50 in series [17] is 0.54 nM. The IC50 in series [18] is 0.54 nM.
